Data: patent US5618681A, “Polyaromatic hydrocarbon (PAH) immunoassay method, its components and a kit for use in performing the same” (priority 1995, dated 1997)

System: anti-PAH monoclonal antibody
Experiment: PAH immunoassay (competitive, antibody coated tubes): cross-reactivity with the anti-PAH monoclonal antibody
Assay type: binding, Balb/c mice
Conditions: for Percent Cross-Reactivity: phenanthrene 100%; for detection in the immunoassay: at 200 ppm levels
Procedure: Female Balb/c mice received a primary subcutaneous immunization with 50 ug of β-methylnaphthalene derivatized to bovine serum albumin in adjuvant (MPL+TDM Emulsion, RIBI Immunochem Research, Inc., Hamilton, Mont.). Subcutaneous secondary injections (25 ug) were given at day 21, 35, and then monthly. […] Hybridoma cultures producing monoclonal antibodies recognizing free hapten by EIA were cloned by limiting dilution.
Antibody coated tubes were prepared by passively coating polystyrene (12X75 mm, NUNC) tubes with the monoclonal F12-3C8 antibody diluted in PBS and incubating overnight. The NUNC polystyrene tubes were rinsed with hexane prior to use and were all from the same lot.
10 g of a soil sample were placed in an extraction vial containing 20 mL of methanol and 5 steel pellets (6 mm) and the vial and its contents shaken for 1 minute to disperse the soil particles and extract the PAHs. The sample was then filtered to clarify the sample extract using a glass fiber depth filter and a 0.45μ Teflon filter. 45 uL of the clarified filtrate sample was mixed with 955 μl of 10 mM PBS (pH=7.4) and the resulting mixture added to lyophilized enzyme conjugate reagent (0.3 μg) and mixed. At the same time, 2×45 uL of the phenanthrene standard are similarly treated. The sample and the two standards were then poured into three identical antibody coated tubes, respectively, and the resulting solution mixed. The resulting solution was incubated for 10 minutes at ambient temperature and then washed 4X with a wash buffer (detergent-saline solution). 250 uL of tetramethylbenzidene solution (KP Laboratories, Cat. No. 50-76-02) was added along with 250 uL of hydrogen peroxide solution (KPL, Cat. No. 50-65-02) and the resultant solution mixed. After incubating for 2.5 minutes the color development reaction was stopped with 250 uL of stop solution (1M sulfuric acid).
The optical density (OD) of the test sample was compared to the OD of the phenanthrene standard (0.65 ppm soil equivalents) which was tested simultaneously with the sample. If the sample OD is less than the standard OD, the sample contains more than 1 ppm PAH. […] Other concentration ranges can be assessed by diluting the test samples with suitable diluents, as long as they are non-reactive with the components of the assay.
In addition other potentially cross-reactive compounds were tested.

[1] = Non-EPA PAHs and other compounds

SMILES	Percent Cross-Reactivity [1] [%]	Concentration Giving a Positive Result (ppm, soil equivalent) [1] [ppm]	Percent Cross-Reactivity (Method 8310 EPA PAHs) [%]	Concentration Giving A Positive Result (ppm, soil equivalent) (Method 8310 EPA PAHs) [ppm]	detection in the immunoassay	concentration in soil at which the PAH immunoassay will provide a positive result (in soils) [ppm]
Clc1cccc2ccccc12 [1-chloronaphthalene]	1.7	59	–	–	–	–
Cc1cccc2ccccc12 [1-methylnaphthalene]	1.8	54	–	–	–	–
Clc1cc(Cl)c(Cl)cc1Cl [2,3,5,6-Tetrachlorobenzene]	< 0.5	> 200	–	–	–	–
Clc1cc(Cl)cc(Cl)c1 [2,4,6-Trichlorobenzene]	< 0.5	> 200	–	–	–	–
Cc1ccc2ccccc2c1 [2-methylnaphthalene]	1.7	58	–	–	–	–
c1cc2c3c(cccc3c1)CC2 [Acenaphthene]	–	–	12	8.1	–	–
C1=Cc2cccc3cccc1c23 [Acenaphthylene]	–	–	13	7.5	–	–
c1ccc2cc3ccccc3cc2c1 [Anthracene]	–	–	123	0.81	–	–
c1ccccc1 [Benzene]	< 0.5	> 200	–	–	not detected	–
c1ccc2cc3c(ccc4ccccc43)cc2c1 [Benzo(a)anthracene]	–	–	64	1.6	–	–
c1ccc2c(c1)cc1ccc3cccc4ccc2c1c34 [Benzo(a)pyrene]	–	–	12	8.3	–	≥ 8.3
c1ccc2c(c1)-c1cccc3c1c-2cc1ccccc13 [Benzo(b)fluoranthene]	–	–	22	4.6	–	–
c1cc2ccc3ccc4ccc5cccc6c(c1)c2c3c4c56 [Benzo(ghi)perylene]	–	–	< 0.5	> 200	–	–
c1ccc2cc3c(cc2c1)-c1cccc2cccc-3c12 [Benzo(k)fluoranthene]	–	–	11	9.4	–	–
CCCCC(CC)COC(=O)c1ccccc1C(=O)OCC(CC)CCCC (centres unmarked) [Bis(2-ethylhexyl) phthalate]	< 0.5	> 200	–	–	–	–
c1ccc2c(c1)ccc1c3ccccc3ccc21 [Chrysene]	–	–	84	1.2	–	–
c1ccc2c(c1)ccc1cc3c(ccc4ccccc43)cc12 [Dibenzo(a,h)anthracene]	–	–	< 0.5	> 200	–	–
c1ccc2c(c1)oc1ccccc12 [Dibenzofuran]	7.2	14	–	–	–	–
c1ccc2c(c1)-c1cccc3cccc-2c13 [Fluoranthene]	–	–	73	1.4	–	–
c1ccc2c(c1)Cc1ccccc1-2 [Fluorene]	–	–	67	1.5	–	–
c1ccc2c(c1)-c1ccc3ccc4cccc5cc-2c1c3c45 [Indeno(1,2,3-cd)pyrene]	–	–	9.4	11	–	–
c1ccc2ccccc2c1 [Naphthalene]	–	–	0.5	200	–	–
Clc1cc(Cl)c(Cl)c(Cl)c1Cl [Pentachlorobenzene]	< 0.5	> 200	–	–	–	–
Oc1c(Cl)c(Cl)c(Cl)c(Cl)c1Cl [Pentachlorophenol]	< 0.5	> 200	–	–	–	–
c1ccc2c(c1)ccc1ccccc12 [Phenanthrene, reference compound]	–	–	100	1.0	–	–
Oc1ccccc1 [Phenol]	< 0.5	> 200	–	–	not detected	–
c1cc2ccc3cccc4ccc(c1)c2c34 [Pyrene]	–	–	29	3.5	–	–
Cc1ccccc1 [Toluene]	< 0.5	> 200	–	–	–	–
